Measured values published in patent US10034886B2, “GLP-1 receptor modulators” (Celgene International II SÀRL, priority 2014, dated 2018).

Target: T1, GLP-1R (Homo sapiens, UniProt P43220)
T1 construct: host or cells: GLP-1R CRE-bla CHO-K1 cells
Experiment: EC20 GLP-1(9-36) PAM cAMP assay: dose response of compound in the presence of fixed concentration of GLP-1(9-36)
Type: cell-based
Details: dose response of compound in presence of fixed concentration of GLP-1(9-36), GLP-1R CRE-bla CHO-K1 cells, read-out: EC20 GLP-1(9-36) PAM EC50
Outline: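 Positive allosteric modulation read as cAMP accumulation: compound titrations (12 points) combined with an EC20 level of GLP-1(9-36) on CHO-K1 GLP-1R CRE-bla cells, IBMX present, 30 min, 37 °C, pH 7.4 buffer. Luminescence converted to cAMP via standards; non-linear fit gave EC50 and Emax.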

T1 sequence (P43220 24-463): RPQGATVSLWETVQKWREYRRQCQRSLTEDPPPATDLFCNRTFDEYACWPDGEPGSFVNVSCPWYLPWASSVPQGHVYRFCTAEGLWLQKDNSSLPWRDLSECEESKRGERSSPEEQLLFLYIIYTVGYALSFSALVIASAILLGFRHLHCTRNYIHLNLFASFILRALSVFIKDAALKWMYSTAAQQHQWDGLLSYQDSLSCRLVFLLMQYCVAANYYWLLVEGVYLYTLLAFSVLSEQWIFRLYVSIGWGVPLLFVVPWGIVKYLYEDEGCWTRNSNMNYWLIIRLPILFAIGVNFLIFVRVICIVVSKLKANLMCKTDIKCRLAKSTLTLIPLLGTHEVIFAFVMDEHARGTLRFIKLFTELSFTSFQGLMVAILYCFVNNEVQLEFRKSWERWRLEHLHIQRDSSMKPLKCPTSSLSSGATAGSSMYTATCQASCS
T1 sequence (P01275 100-127 partner limits assumed): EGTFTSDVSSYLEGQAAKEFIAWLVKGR

Row | Structure (SMILES) | EC50 [nM]
1 | CCCCCCCOc1ccc(-c2cnc(-c3ccc(C[C@H](NC(=O)c4ccc(C(C)(C)C)s4)C(=O)N4CC(C(=O)NS(=O)(=O)CC(=O)OC)C4)cc3)nc2)cc1 [Compound 654, methyl (S)-2-(N-(1-(2-(5-(tert-butyl)thiophene-2-carboxamido)-3-(4-(5-(4-(heptyloxy)phenyl)pyrimidin-2-yl)phenyl)propanoyl)azetidine-3-carbonyl)sulfamoyl)acetate] | < 800
2 | C[C@@H](NC(=O)[C@H](Cc1ccc(-c2ncc(-c3ccc(N(c4ccccc4)c4ccccc4)cc3)cn2)cc1)NC(=O)c1ccc(C(C)(C)C)s1)C(=O)O [Compound 1015] | 800 to 2500
3 | C[C@@H](NC(=O)[C@H](Cc1ccc(-c2ncc(-c3cc(OC(F)(F)F)ccc3F)cn2)cc1)NC(=O)c1ccc(C(C)(C)C)s1)C(=O)O [Compound 1026] | 2500 to 5000
4 | CCCCCCCOc1ccc(-c2cnc(-c3ccc(C[C@H](NC(=O)c4ccc(N5CCCC5)cc4)C(=O)N[C@@H](C)C(=O)O)cc3)nc2)cc1 [Compound 870] | 800 to 2500
